Test results from ChEMBL document CHEMBL2417377, “Hit-to-lead optimization and kinase selectivity of imidazo[1,2-a]quinoxalin-4-amine derived JNK1 inhibitors” (Bioorg Med Chem Lett, 2013).

What was measured:
[1] = molecular target: Cyclin-dependent kinase 16 (Homo sapiens) (UniProt Q00536); experiment: Inhibition of PCTAIRE1 in human PC3 cell lysates at 30 uM using desthiobiotin-tagged ATP probe AX9989 followed by trypsinization by LC/MS analysis; details: PC-3
[2] = molecular target: T1, Phosphatidylinositol 5-phosphate 4-kinase type-2 gamma (Homo sapiens) (UniProt Q8TBX8); experiment: Inhibition of PIP4K2C in human PC3 cell lysates at 30 uM using desthiobiotin-tagged ATP probe AX9989 followed by trypsinization by LC/MS analysis; details: PC-3
T1 sequence (whole entry): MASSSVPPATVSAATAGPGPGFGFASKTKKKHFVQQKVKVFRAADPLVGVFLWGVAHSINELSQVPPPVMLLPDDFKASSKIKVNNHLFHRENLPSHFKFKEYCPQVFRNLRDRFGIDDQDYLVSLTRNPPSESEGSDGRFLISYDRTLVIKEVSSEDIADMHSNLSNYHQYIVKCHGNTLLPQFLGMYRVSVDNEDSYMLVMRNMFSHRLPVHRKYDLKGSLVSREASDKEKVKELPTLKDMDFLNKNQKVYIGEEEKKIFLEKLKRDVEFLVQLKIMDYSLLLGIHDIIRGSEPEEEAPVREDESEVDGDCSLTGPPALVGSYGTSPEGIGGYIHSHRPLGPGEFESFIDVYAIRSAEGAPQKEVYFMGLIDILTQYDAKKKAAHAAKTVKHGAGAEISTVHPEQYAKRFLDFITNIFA

[3] = Inhibition of PITSLRE in human PC3 cell lysates at 30 uM using desthiobiotin-tagged ATP probe AX9989 followed by trypsinization by LC/MS analysis; type: cell-free; details: PC-3
[4] = molecular target: Phosphatidylinositol 4-kinase beta (Homo sapiens) (UniProt Q9UBF8); experiment: Inhibition of PI4KB in human PC3 cell lysates at 30 uM using desthiobiotin-tagged ATP probe AX9989 followed by trypsinization by LC/MS analysis; details: PC-3
[5] = molecular target: c-Jun N-terminal kinase, JNK (Homo sapiens) (UniProt P45983+P53779+P45984); experiment: Inhibition of JNK1/JNK2/JNK3 in human PC3 cell lysates at 30 uM using desthiobiotin-tagged ATP probe AX9989 followed by trypsinization by LC/MS analysis; type: protein assay; details: PC-3
[6] = molecular target: Casein kinase II subunit alpha' (Homo sapiens) (UniProt P19784); experiment: Inhibition of CK2alpha2 in human PC3 cell lysates at 30 uM using desthiobiotin-tagged ATP probe AX9989 followed by trypsinization by LC/MS analysis; details: PC-3
[7] = molecular target: MAST1/MAST2 (Homo sapiens) (UniProt Q9Y2H9+Q6P0Q8); experiment: Inhibition of MAST1/2 in human HuH7 cell lysates at 10 uM; type: protein assay; details: Huh-7
Sequence of MAST1/MAST2 (Homo sapiens) (Q6P0Q8 whole entry, looked up): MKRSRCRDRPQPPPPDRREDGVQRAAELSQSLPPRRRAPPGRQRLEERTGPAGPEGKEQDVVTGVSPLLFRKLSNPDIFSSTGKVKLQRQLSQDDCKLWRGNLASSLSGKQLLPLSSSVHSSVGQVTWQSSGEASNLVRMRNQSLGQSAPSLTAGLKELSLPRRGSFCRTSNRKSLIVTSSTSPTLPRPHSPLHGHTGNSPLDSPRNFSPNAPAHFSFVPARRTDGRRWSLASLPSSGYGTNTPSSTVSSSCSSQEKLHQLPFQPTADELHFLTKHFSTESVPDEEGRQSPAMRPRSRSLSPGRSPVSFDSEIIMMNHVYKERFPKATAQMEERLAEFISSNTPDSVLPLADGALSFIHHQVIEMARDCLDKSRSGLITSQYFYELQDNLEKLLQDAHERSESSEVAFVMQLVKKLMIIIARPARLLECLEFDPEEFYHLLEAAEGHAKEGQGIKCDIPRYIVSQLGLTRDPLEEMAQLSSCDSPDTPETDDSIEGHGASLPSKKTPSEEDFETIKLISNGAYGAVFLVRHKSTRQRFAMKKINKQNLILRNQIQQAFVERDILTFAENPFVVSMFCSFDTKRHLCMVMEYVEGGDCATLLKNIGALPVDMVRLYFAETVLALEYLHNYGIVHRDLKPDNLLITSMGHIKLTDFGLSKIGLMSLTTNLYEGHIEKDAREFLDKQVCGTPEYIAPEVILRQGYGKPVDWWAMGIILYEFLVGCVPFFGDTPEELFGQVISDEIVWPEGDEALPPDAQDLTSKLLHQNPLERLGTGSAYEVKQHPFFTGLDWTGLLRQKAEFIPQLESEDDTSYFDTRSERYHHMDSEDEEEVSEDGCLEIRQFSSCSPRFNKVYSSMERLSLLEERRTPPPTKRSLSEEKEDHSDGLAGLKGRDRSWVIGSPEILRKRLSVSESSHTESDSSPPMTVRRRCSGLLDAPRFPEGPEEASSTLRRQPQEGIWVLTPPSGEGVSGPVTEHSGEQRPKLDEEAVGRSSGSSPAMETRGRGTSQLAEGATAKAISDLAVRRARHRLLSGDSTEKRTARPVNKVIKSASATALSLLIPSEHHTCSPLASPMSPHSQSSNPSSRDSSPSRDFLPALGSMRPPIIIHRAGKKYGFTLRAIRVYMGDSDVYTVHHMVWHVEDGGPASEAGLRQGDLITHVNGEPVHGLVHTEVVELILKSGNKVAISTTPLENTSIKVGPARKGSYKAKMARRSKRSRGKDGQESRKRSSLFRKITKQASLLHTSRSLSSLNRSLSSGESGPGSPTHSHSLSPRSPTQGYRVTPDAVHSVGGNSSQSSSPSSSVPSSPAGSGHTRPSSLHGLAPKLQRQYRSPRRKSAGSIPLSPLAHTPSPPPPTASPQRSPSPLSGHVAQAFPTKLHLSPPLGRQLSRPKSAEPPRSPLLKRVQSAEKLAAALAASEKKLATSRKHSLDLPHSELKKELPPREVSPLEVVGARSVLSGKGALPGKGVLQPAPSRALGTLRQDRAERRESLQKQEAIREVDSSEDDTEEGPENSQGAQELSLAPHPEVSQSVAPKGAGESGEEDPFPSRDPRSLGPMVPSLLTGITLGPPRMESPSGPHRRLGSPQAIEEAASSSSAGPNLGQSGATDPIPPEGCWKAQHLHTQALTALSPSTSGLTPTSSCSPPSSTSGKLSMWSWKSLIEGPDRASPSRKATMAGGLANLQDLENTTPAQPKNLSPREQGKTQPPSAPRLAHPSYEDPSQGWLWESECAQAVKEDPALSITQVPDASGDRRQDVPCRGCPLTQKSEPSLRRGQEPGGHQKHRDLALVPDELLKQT
Sequence of MAST1/MAST2 (Homo sapiens) (Q9Y2H9 whole entry, looked up): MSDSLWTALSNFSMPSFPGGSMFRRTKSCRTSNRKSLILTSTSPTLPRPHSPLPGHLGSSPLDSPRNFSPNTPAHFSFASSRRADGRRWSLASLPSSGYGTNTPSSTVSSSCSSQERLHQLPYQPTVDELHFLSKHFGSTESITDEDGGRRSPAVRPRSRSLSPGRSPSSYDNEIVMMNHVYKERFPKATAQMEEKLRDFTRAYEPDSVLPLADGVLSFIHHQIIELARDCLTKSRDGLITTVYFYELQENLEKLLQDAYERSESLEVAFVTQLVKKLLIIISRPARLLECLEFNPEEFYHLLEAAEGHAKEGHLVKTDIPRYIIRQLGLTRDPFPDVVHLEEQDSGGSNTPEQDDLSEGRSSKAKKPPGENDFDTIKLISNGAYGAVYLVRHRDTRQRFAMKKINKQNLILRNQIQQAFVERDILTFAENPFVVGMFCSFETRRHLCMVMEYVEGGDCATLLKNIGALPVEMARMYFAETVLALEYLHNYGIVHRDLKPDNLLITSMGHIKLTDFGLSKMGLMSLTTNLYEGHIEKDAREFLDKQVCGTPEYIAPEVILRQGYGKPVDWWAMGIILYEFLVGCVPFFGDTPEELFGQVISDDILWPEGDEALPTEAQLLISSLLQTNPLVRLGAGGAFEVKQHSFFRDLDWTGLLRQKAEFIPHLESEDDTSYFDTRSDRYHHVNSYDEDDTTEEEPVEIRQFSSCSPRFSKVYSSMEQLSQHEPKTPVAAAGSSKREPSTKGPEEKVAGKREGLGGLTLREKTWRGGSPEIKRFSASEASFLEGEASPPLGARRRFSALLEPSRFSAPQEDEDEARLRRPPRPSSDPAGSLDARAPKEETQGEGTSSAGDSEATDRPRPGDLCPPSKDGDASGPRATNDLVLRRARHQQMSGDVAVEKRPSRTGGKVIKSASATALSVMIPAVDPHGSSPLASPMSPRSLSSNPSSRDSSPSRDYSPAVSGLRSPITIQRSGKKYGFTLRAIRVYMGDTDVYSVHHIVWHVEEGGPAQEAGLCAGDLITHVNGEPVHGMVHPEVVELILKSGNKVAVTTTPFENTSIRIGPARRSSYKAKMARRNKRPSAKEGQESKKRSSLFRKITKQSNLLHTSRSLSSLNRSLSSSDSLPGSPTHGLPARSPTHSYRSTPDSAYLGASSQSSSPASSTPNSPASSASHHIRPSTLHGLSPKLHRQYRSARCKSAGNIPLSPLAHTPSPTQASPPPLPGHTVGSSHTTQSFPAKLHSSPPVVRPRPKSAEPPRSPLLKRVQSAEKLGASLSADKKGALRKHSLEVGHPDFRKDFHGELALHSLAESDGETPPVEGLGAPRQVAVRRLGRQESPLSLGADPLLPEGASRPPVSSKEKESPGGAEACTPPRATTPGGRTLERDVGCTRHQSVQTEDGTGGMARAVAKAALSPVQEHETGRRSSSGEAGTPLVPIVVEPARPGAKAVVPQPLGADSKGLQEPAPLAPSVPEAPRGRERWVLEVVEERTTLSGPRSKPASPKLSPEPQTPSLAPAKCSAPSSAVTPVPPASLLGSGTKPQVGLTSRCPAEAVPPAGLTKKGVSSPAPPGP

Sequence of Phosphatidylinositol 4-kinase beta (Homo sapiens) (Q9UBF8 2-816 limits assumed): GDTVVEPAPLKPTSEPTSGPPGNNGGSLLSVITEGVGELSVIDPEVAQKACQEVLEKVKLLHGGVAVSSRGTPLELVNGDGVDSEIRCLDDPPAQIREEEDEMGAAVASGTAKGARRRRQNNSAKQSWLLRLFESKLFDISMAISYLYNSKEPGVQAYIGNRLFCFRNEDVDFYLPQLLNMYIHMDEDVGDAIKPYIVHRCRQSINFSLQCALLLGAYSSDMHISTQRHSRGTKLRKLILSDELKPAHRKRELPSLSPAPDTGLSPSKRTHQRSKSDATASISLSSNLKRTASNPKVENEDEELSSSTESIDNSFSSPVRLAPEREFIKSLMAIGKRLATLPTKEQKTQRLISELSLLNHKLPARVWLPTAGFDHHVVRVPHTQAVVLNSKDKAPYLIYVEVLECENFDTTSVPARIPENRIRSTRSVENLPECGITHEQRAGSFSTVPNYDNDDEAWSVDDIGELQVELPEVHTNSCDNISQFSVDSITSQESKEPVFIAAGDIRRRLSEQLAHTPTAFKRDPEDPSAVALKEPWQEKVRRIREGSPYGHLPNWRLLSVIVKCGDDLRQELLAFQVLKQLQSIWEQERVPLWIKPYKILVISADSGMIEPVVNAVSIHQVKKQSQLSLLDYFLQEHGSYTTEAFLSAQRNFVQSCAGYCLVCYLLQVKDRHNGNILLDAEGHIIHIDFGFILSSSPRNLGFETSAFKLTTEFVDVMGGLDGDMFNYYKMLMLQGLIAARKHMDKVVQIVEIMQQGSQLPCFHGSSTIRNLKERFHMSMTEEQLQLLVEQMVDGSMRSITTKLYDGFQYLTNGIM
Sequence of Casein kinase II subunit alpha' (Homo sapiens) (P19784 whole entry, looked up): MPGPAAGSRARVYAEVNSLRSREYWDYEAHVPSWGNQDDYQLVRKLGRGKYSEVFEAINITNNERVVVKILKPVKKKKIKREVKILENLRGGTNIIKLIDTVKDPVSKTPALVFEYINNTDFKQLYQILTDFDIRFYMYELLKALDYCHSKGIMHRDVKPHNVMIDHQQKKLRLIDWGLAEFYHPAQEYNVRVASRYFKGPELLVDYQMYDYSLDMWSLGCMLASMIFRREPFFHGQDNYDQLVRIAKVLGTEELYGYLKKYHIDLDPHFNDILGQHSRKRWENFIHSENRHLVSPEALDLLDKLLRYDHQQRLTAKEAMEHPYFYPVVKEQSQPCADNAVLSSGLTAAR
Sequence of Cyclin-dependent kinase 16 (Homo sapiens) (Q00536 whole entry): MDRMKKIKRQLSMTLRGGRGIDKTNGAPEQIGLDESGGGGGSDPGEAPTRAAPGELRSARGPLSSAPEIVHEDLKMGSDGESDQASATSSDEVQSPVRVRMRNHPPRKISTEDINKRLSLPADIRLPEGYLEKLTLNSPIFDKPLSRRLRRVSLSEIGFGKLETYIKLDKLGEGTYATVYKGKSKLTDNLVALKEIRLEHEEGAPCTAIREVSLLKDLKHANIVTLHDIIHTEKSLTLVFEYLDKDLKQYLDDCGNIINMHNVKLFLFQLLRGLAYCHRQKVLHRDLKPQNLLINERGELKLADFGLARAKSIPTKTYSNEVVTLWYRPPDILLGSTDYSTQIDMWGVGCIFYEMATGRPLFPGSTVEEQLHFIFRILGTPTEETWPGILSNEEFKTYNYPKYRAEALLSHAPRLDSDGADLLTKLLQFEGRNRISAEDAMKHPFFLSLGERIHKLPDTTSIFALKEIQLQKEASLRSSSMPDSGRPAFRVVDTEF

Row | inhibition [1] [%] | inhibition [2] [%] | inhibition [4] [%] | inhibition [5] [%] | inhibition [6] [%] | inhibition [7] [%] | SMILES | inhibition [3] [%]
1 | 38.9 | 50.9 | 90.8 | 97.5 | 49.6 |  | O[C@H]1CC[C@H](Nc2nc3ccccc3n3ccnc23)CC1 | 82.4
2 |  |  |  |  |  | 75.6 | O=C(N[C@H](CO)c1ccccc1)c1ccc2nc(N[C@H]3CC[C@H](O)CC3)c3nccn3c2c1 | 
3 |  |  |  |  |  | 36.9 | CCC[C@@H](NC(=O)c1ccc2nc(N[C@H]3CC[C@H](O)CC3)c3nccn3c2c1)c1ccccc1 | 
4 | < 35 | < 35 | 55.9 | 80.4 | < 35 |  | c1ccc2c(c1)nc(NC1CCCCC1)c1nccn12 | < 35
5 | < 35 | < 35 | 66.5 | 46.2 | < 35 |  | c1ccc(CNc2nc3ccccc3n3ccnc23)cc1 | < 35
6 |  |  |  |  |  | > 86 | O=C(NC1(c2ccccc2)CC1)c1ccc2nc(N[C@H]3CC[C@H](O)CC3)c3nccn3c2c1 | 
7 | < 35 | 52.6 | 59.9 | 41.6 | < 35 |  | c1ccc(CCNc2nc3ccccc3n3ccnc23)cc1 | < 35
8 |  |  |  |  |  | 76 | O=C(NC1(c2ccc(F)cc2)CC1)c1ccc2nc(N[C@H]3CC[C@H](O)CC3)c3nccn3c2c1 | 
